Data reported in US20230000813A1, “COMPOUND FOR THE TREATMENT OF BOVINE OR SWINE RESPIRATORY DISEASE” (Intervet Inc., priority 2016, published 2023).
Converted amounts (≈) assume the structure as drawn. “And” between values parts separate entries of the source, which are not always exact repeats. Equal entries are not always repeated.

Legend:
[1] = system: Mannheimia haemolytica MH 13093 (XB0472-6014.1, BRD field isolate); assay: MIC, broth-microdilution (CLSI VET01-A4); type: cell-based
Procedure, shortened: (§1)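 Broth microdilution per CLSI VET01-A4 using doubling dilution series of compound. MIC taken as the lowest concentration with no turbidity visible to the unaided eye, interpreted per CLSI VET01-S3.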

[2] = system: Mannheimia haemolytica MH 13065 (XB0446-6003.9, BRD field isolate); assay: MIC, broth-microdilution (CLSI VET01-A4); type: cell-based
Procedure, shortened: as §1

[3] = system: Pasteurella multocida PM 6391 (ATCC 43137, reference strain); assay: MIC, broth-microdilution (CLSI VET01-A4); type: cell-based; conditions: Pasteurella multocida PM 6391
Procedure, shortened: (§2)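 Visual no-turbidity endpoint over twofold compound dilutions in microdilution trays, interpreted according to CLSI VET01-S3.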

[4] = system: Pasteurella multocida PM 10775 (080130003051, BRD field isolate); assay: MIC, broth-microdilution (CLSI VET01-A4); type: cell-based; conditions: Pasteurella multocida PM 10775
Procedure, shortened: as §2

[5] = system: Mannheimia haemolytica MH 6357 (M7/2, reference strain, cattle infection strain); assay: MIC, broth-microdilution (CLSI VET01-A4); type: cell-based; conditions: Mannheimia haemolytica MH 6357; read-out: MIC MH 6357
Procedure, shortened: as §2

[6] = system: Mannheimia haemolytica MH 6374 (ATCC 33396, reference strain); assay: MIC, broth-microdilution (CLSI VET01-A4); type: cell-based; conditions: Mannheimia haemolytica MH 6374; read-out: MIC MH 6374
Procedure, shortened: as §2

[7] = system: Mannheimia haemolytica MH 10720 (154, BRD field isolate); assay: MIC, broth-microdilution (CLSI VET01-A4); type: cell-based; conditions: Mannheimia haemolytica MH 10720
Procedure, shortened: as §2

[8] = system: Pasteurella multocida PM 6267 (P 2225 (L386), reference strain, mouse infection strain); assay: MIC, broth-microdilution (CLSI VET01-A4); type: cell-based; conditions: Pasteurella multocida PM 6267
Procedure, shortened: as §2

[9] = system: Pasteurella multocida PM 12080 (IV102277-0093, BRD field isolate); assay: MIC, broth-microdilution (CLSI VET01-A4); type: cell-based; conditions: Pasteurella multocida PM 12080
Procedure, shortened: as §2

[10] = system: Mannheimia haemolytica MH 12587 (1071, BRD field isolate, macrolide-resistance: erm+, E+); assay: MIC, broth-microdilution (CLSI VET01-A4); type: cell-based; conditions: Mannheimia haemolytica MH 12587, macrolide-resistant
Procedure, shortened: as §2

M. haemolytica = assay: Mannheimia haemolytica cattle lung infection model, efficacy (Example 10); type: in vivo, cattle calves; conditions: 3 calves, 10 mg/kg
Method: Unless otherwise described the study was conducted as described in Clinical Example 8
(§3) Calves were infected via intratracheal instillation of appr. 300 mL of M. haemolytica PBS suspension containing approximately 4×10^9 CFU M. haemolytica in late log phase on Day 0.
One hour later three animals each were treated with 10 mg/kg of Compound 231(referred to as C. 231) (80 mg/mL in 10% Poloxamer 188), or 10 mg/kg or 5 mg/kg Compound 329 (referred to as C. 329) (150 mg/mL in 35% Cavitron).
(§4) The following clinical findings were recorded: The general behavior scores of the animals before (DO am) and after infection with M. haemolytica in the different treated and control groups are indicated in FIG. 8-1: 0=normal; 1=slightly depressive, 2=moderately depressive, 3=highly depressive, 4=recumbency.
The following pathomorphological findings after section on Day 2 were recorded: After measuring the body weight and the lung weight the Lung body mass ratio was calculated as shown in FIG. 8-2. A healthy animal has a lung body mass ration around 1.7 or lower. The area percentage of lung consolidations compared to the total lung tissue and the lung score determined that is a combined score of such percentage of lung consoldiations and the grade. For the “grade” the degree of lung consolidation score was graded from 0 to 3 for each of eight lung lobes: 0 no visible changes, 1 low graded colour changes or induration, 2 medium graded induration, 3 high graded induration, hepatisation, necrosis.
The geometrical means (CFU/g tissue) of bacteriological re-isolations of Mannheimia haemolytica from lung tissue are illustrated in FIG. 8-4.

[11] = system: M. haemolytica M7/2, serotype A:1, ID 6357; assay: Mannheimia haemolytica cattle lung infection model, efficacy (Example 8); type: in vivo, Holstein black pied cattle calves; design: key to General behavior, score: 0 = normal; 1 = slightly depressive; 2 = moderately depressive; 3 = highly depressive; 4 = recumbency; key to Re-isolation of bacteria, Left Bronchial swab / Re-isolation of bacteria, Right Bronchial swab: − no bacterial growth; + low; ++ medium; +++ high amount of bacterial growth; conditions: for Food consumption, cumulated for all animals in the group: 3 calves; for Lung score (including grade and percent Lung consolidation): grade of consolidation 0 to 3
Method: 15 male Holstein black pied cattle calves of ca. 4 months age were randomly assigned to the study groups ensuring an equal distribution of body weight. The animal weight was approximately 98-133.5 kg on D-1.
Calves were infected on Day 0 via intratracheal instillation of approximately 300 mL of a M. haemolytica PBS suspension containing approximately 3×10^9 CFU M. haemolytica in late log phase.
Three animals each were treated one hour after infection by subcutaneous (SC) administration of Compound 329 in an aqueous 30% (w/v) Captisol® solution for injection at a dose of 10 mg/kg BW.
The respective dose volume was injected on the sides of the thoracic wall. Injection volumes exceeding 10 mL were divided into one portion of 10 mL administered to the left side and the remaining rest administered at different injection sites on the other side. Animals in one control group were treated with a commercially available Enrofloxacin solution (Baytril ® 10%, Bayer Animal Health) at the recommended dose of 10 mg/kg BW. The second control group was treated with the galenic diluent (30% (w/v) Captisol®, dissolved in water) as placebo.
Food consumption was measured. Single individual blood samples were collected from the 12 animals at the following time points: D-1 (predose), 30 minutes, 2, 4, 6, 24 h and at D2 (ca. 45 h) after administration. After the day 2 blood sampling, the infected cattle were slaughtered. The lungs were weighted. Lung states and lung scores were observed morphologically.
At necropsy from animals treated with test items or the positive control, samples of epithelial lining fluid (ELF), lung tissue, and additionally tissue of liver and kidney were collected. From each lung two bacteriological swaps were taken from the left and right bronchus.
From each lung two tissue samples were collected by clipping from at least two locations, one from morphologically unchanged tissue, one from the edge of pathomorphologically changed areas.

M. haemolytica M7/2 = assay: Mannheimia haemolytica cattle lung infection model, efficacy (Example 9); type: in vivo, cattle calves; conditions: 3 calves, SC 10 mg/kg BW
Method: Unless otherwise described the study was conducted as described in Example 8.
as §3
as §4, with “7-1: 0 =normal;” for “8-1: 0=normal;”, “[…] recumbency.” for “4=recumbency.”
The following pathomorphological findings after section on Day 2 were recorded: After measuring the body weight and the lung weight the Lung body mass ratio was calculated as shown in FIG. 7-2. A healthy animal has a lung body mass ration around 1.7 or lower. The area percentage of lung consolidations compared to the total lung tissue and the lung score determined that is a combined score of such percentage of lung consoldiations and the grade. For the “grade” the degree of lung consolidation score was graded from 0 to 3 for each of eight lung lobes: 0 no visible changes, 1 low graded colour changes or induration, 2 medium graded induration, 3 high graded induration, hepatisation, necrosis.
The geometrical means (CFU/g tissue) of bacteriological re-isolations of Mannheimia haemolytica from lung tissue are illustrated in FIG. 7-4.

[12] = D 0 am, after infection and treatment
[13] = section on day 2, infected calves, SC 10 mg/kg, individual animals and mean, 10 mg/kg
[14] = section on day 2, infected calves, SC 10 mg/kg, individual animals and mean, 10 mg/kg, mean
[15] = section on day 2, infected calves, SC single 10 mg/kg, individual animals

Compound: CC(C)([C@H](NC(=O)c1ccc(C#Cc2ccc(CNCc3nccs3)s2)cc1)C(=O)NO)S(C)(=O)=O [Compound 745]
- MIC [1]: 0.4 µM (≈ 0.219 µg/mL)
- MIC [2]: 0.4 µM (≈ 0.219 µg/mL)
- MIC PM 6391 [3]: <=0.1 μM
- MIC PM 10775 [4]: <=0.1 μM
- MIC [5]: 0.4 µM (≈ 0.219 µg/mL)
- MIC [6]: 0.2 µM (≈ 0.109 µg/mL)
- MIC MH 10720 [7]: <=0.1 μM
- MIC PM 6267 [8]: <=0.1 μM
- MIC PM 12080 [9]: <=0.1 μM
- MIC MH 12587 [10]: 0.4 µM (≈ 0.219 µg/mL)

Compound: CCN1CCN(c2cc3c(cc2F)c(=O)c(C(=O)O)cn3C2CC2)CC1 [Enrofloxacin, reference compound]
- Food consumption, cumulated for all animals in the group (M. haemolytica; [12]): 1667 g
- Food consumption, cumulated for all animals in the group (M. haemolytica; D 0 pm): 4800 g
- Food consumption, cumulated for all animals in the group (M. haemolytica; D +1 am): 4800 g
- Food consumption, cumulated for all animals in the group (M. haemolytica; D +1 pm): 4800 g
- Food consumption, cumulated for all animals in the group (M. haemolytica; D −1 (before infection)): 4800 g
- General behavior, score ([11]; D 0 am (before infection), calves, SC 10 mg/kg, individual animals and mean, 10 mg/kg): 0
- General behavior, score ([11]; D 0 am (before infection), calves, SC 10 mg/kg, individual animals and mean, 10 mg/kg, mean): 0.0 score
- Food consumption, cumulated for all animals in the group ([11]; D 0 am, after infection and treatment, SC 10 mg/kg): 660 g
- Food consumption, cumulated for all animals in the group ([11]; D 0 pm, SC 10 mg/kg): 4800 g
- General behavior, score ([11]; D 0 pm, calves infected with M. haemolytica, SC 10 mg/kg 1 h after infection, individual animals and mean, 10 mg/kg): 0
- General behavior, score ([11]; D 0 pm, calves infected with M. haemolytica, SC 10 mg/kg 1 h after infection, individual animals and mean, 10 mg/kg, mean): 0.0 score
- General behavior, score ([11]; D 1 am, calves infected with M. haemolytica, SC 10 mg/kg 1 h after infection, individual animals and mean, 10 mg/kg): 0
- General behavior, score ([11]; D 1 am, calves infected with M. haemolytica, SC 10 mg/kg 1 h after infection, individual animals and mean, 10 mg/kg, mean): 0.0 score
- General behavior, score ([11]; D 1 pm, calves infected with M. haemolytica, SC 10 mg/kg 1 h after infection, individual animals and mean, 10 mg/kg): 0
- General behavior, score ([11]; D 1 pm, calves infected with M. haemolytica, SC 10 mg/kg 1 h after infection, individual animals and mean, 10 mg/kg, mean): 0.0 score
- General behavior, score ([11]; D 2 am, calves infected with M. haemolytica, SC 10 mg/kg 1 h after infection, individual animals and mean, 10 mg/kg): 0
- General behavior, score ([11]; D 2 am, calves infected with M. haemolytica, SC 10 mg/kg 1 h after infection, individual animals and mean, 10 mg/kg, mean): 0.0 score
- Food consumption, cumulated for all animals in the group ([11]; D +1 am, SC 10 mg/kg): 4800 g
- Food consumption, cumulated for all animals in the group ([11]; D +1 pm, SC 10 mg/kg): 4800 g
- Food consumption, cumulated for all animals in the group ([11]; D −1 (before infection), SC 10 mg/kg): 4800 g
- mean bacterial re-isolation ([11]; infected calves, SC 10 mg/kg, in words): Very low
- Lung score (including grade and percent Lung consolidation) [11, 13]: 21.2 and 16.9 and 20.4
- Lung score (including grade and percent Lung consolidation) [11, 14]: 19.5
- Lung consolidations [11, 13]: 13.0% and 10.8% and 15.3%
- Lung weight [11, 13]: 1334 g and 1765 g and 1429 g
- Lung/body weight ratio [11, 13]: ~1.3% and 1.31% and 1.34% and 1.21% and 1.29%
- Lung consolidations [11, 14]: 13.0%
- Lung weight [11, 14]: 1509 g
- Re-isolation of bacteria, Left Bronchial swab [11, 15]: −
- Re-isolation of bacteria, Right Bronchial swab [11, 15]: −
- Food consumption, cumulated for all animals in the group (M. haemolytica M7/2; [12]): 4027 g
- Food consumption, cumulated for all animals in the group (M. haemolytica M7/2; D 0 pm): 4800 g
- Food consumption, cumulated for all animals in the group (M. haemolytica M7/2; D +1 am): 4737 g
- Food consumption, cumulated for all animals in the group (M. haemolytica M7/2; D +1 pm): 4800 g
- Food consumption, cumulated for all animals in the group (M. haemolytica M7/2; D −1 (before infection)): 4800 g
